Data set [1] in a line: Spectroscopic absorbance properties. Format: physicochemical. The text has this: The absorption bands of each photosensitiser are relatively insensitive to solvent changes with solutions in water/Cremophor resulting in a further bathochromic shift of ˜10 nm (Table 1). Excitation of chloroform solutions of the 2a and 4a at 635 nm gave a fluorescence band at 672 and 673 nm respectively (FIG. 2, Table 2). […] The reduction in fluorescence quantum yield in the series would imply more efficient population of the triplet excited state which would benefit singlet oxygen production. The ability of 2 and 4 to produce singlet oxygen would be a prerequisite to them being potential PDT agents.

A short description of data set [2]: Confocal microscopy subcellular localisation. It counts as cell-based. The conditions noted are these: FIGS. 17–19. The procedure:
Cells were seeded at a density of 30,000 cells/well in chamber slides and allowed to adhere for 24 hr. 2a (10^−5 M) was then added to each chamber and incubated at 37° C. in the dark for either 1 hr or 3 hrs at 37° C.—a one hour incubation was used for FIGS. 4 and 5. The medium was removed and the cells were washed 4 times with drug-free (2a free) medium. The cells were then fixed with 3.7% (v/v) formaldehyde for 15 min at 37° C. The fixative solution was removed and the cells were washed twice with sterile PBS. DAPI (4′,6-diamidino-2-phenylindole) nuclear stain (1/1000) was then incubated with the cells for 10 min at 37° C., following which the cells were washed twice with PBS. Cells were then mounted in Vectashield (Trade Mark) mounting medium.
The cells were viewed using a Leica TCSSL Confocal Laser Scanning microscope (the LSM510 META Confocal Microscope was used to visualise DAPI and 2a simultaneously).
These could be lysosomes which have a typical size range of 0.2–2 μm; peroxisomes which have a typical size range of 0.5–1.5 μm; or endosomes which have a typical size range of 0.2–2 μm. It will be appreciated that localisation of the photosensitising compounds of the invention in different subcellular sites may impact on how effective the photodynamic therapy may be.

In data set [3] the test system is MRC5 cells. Nature of the data set: Fluorescence microscopy uptake study in MRC5 cells. It counts as cell-based. The conditions noted are these: 10^−5 M. On the procedure:
Cells were seeded at a density of 30,000 cells/well in chamber slides and allowed to adhere for 24 hr. A compound of the present invention (10^−5 M) was then added to each chamber and incubated at 37° C. in the dark over time, for example, 15 min, 30 min, 1 hr, 3 hr and 6 hr. The medium was removed after the specified time and the cells were washed 4 times with medium free of that compound of the invention. The cells were then fixed with 3.7% (v/v) formaldehyde for 15 min at 37° C. The fixative solution was removed and the cells were washed twice with sterile PBS. DAPI nuclear stain (1/1000) was then incubated with the cells for 10 is min at 37° C., following which the cells were washed twice with PBS. Cells were then mounted in Vectashield (Trade Mark) mounting medium.
(§1) LabWorks (Bioimaging Systems) was used to calculate the average fluorescence intensity per cell for each of the different time points used in the uptake and efflux studies for the compounds of the present invention. […] The DAPI filter was used to accurately count the number of cells in each field of view and the rhodamine filter was used to quantify the fluorescence of the compounds of the present invention.
Using the assay method set out above under the heading “Fluorescence Microscopy”, the uptake of 2a was examined for HeLa and MRC5 […] cell lines and the data are illustrated in FIGS. 6a and 6b, respectively. […]

Data set [4] relates to HeLa cells. Nature of the data set: Fluorescence microscopy efflux study in HeLa cells. Format: cell-based. The conditions noted are these: after 3 hrs incubation with 10^−5 M. On the procedure:
Cells were seeded at a density of 30,000 cells/well in chamber slides and allowed to adhere for 24 hr. A compound of the present invention (10^−5 M) was then added to each chamber and incubated at 37° C. in the dark for 3 hrs. The same procedure was used as for the uptake studies, but for the efflux studies, the cells were treated with fixative solution at specified times after removal of the drug, for example, 5 min, 15 min, 30 min, 1 hr, 2 hr, 3 hr, 6 hr and 24 hr. The slides were then viewed using an Axio Zeiss fluorescent microscope. The cells were examined at the different time points using two different filters. The rhodamine filter was used to visualise the compound of the present invention. […]
as §1
Using the assay method set out above under the heading “Fluorescence Microscopy”, the efflux of 2a was examined from Hela cells and the data are illustrated in FIG. 7. […]

Where [5] appears, read: Water/Cremophor (100:1), room temperature.

As for `F[B-]1(F)n2c(-c3ccccc3)cc(-c3ccccc3)c2N=C2C(c3ccccc3)=CC(c3ccccc3)=[N+]21` [Compound 2a], in data set [1] (CHCl3, room temperature), the “fwhm (full width at half maximum)” value is 49 nm, the “ε (molar extinction coefficient)” value is recorded as 79,000 M^−1cm^−1 and the “λmax (absorbance)” value is listed as 650 nm. Further, in data set [1] (setting [5]), the “fwhm (full width at half maximum)” value is reported as 53 nm and the “λmax (absorbance)” value was 658 nm. For the same molecule, the cellular localisation entry in data set [2] was “both diffuse and punctuated cytoplasmic localisation”. Further, in data set [3], the “time of maximum uptake” value was 200 min. Further, the “time to complete efflux” value in data set [4] came to 1000 min.

Values taken from patent US7220732B2, “Compounds useful as photodynamic therapeutic agents” (priority 2002, dated 2007).
